Activity data for one compound are collected here from ChEMBL document CHEMBL2176906, “Diterpenoids isolated from Sideritis species protect astrocytes against oxidative stress via Nrf2” (J Nat Prod, 2012).

The source made the active and inactive calls. No cut-off for these calls is given here.

The test system of this assay is U373 MG. Briefly: Inhibition of AAPH-induced oxidative stress in human U373MG cells assessed as peroxy radical scavenging activity at 8 uM by ORAC assay. The assay is classed as functional, cell-based. The conditions noted are these: U-373MG ATCC.

With `Cc1c(C)c2c(c(C)c1O)CCC(C)(C(=O)O)O2` (stereo unspecified), the outcome was Active.
